The target of one experiment is T1, CD80-CD28 interaction (Homo sapiens, UniProt P33681).
T1 sequence (P33681 35-242 limits assumed): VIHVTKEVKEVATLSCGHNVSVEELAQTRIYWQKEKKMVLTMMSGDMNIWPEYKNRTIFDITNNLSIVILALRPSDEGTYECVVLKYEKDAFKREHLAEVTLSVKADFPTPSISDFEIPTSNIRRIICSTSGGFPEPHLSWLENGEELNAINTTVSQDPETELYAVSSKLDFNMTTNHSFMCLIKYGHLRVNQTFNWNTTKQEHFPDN
The experiment is described as follows: Homogenous Time Resolved Fluorescence (HTRF) assay, cell free. The class given is binding. The conditions noted are these: inhibition of the CD80-CD28 interaction, 4 hours at room temperature; read-out: EC50 activity in the HTRF assay. In outline: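 Europium and APC labels were linked through antibodies to CD28 and CD80 fusion proteins. Compounds were tested at 100 μM-1.7 nM for 4 h at room temperature in 50 mM Tris-HCl, 150 mM NaCl pH7.8, 0.1% BSA. Emission read at 665 and 615 nm (excitation 340 nm); non-specific signal measured with C215 Fab in place of CD80; EC50 reported in bands.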

Experiment [1] concerns the target T2, Biotinylated human CD80 (hCD80-BT) (Homo sapiens, UniProt P33681).
T2 construct: biotin (biotinylated)
T2 sequence (P33681 35-242 limits assumed): T1 sequence (P33681 35-242 limits assumed)
The experiment is described as follows: BIAcore biomolecular interaction analysis, binding to immobilised hCD80-BT. The arrangement: off-rate on CD80: unit not given here. The conditions noted are these: BIAcore S51, immobilised hCD80-BT. From the text:
The Use of BIAcore Biomolecular Interaction Analysis
Biotinylated human CD80 (hCD80-BT) is a recombinant soluble form of a membrane bound receptor molecule (CD80) which binds to CD28 to initiate T cell activation. The interaction between CD80 and CD28 has been extensively investigated (Collins et al, 2002). Biotinlyated human HLA-A2-tax is the recombinant soluble form of a membrane bound receptor molecule that has been used in this example as a control protein, and is not expected to interact with the compounds.
The BIAcore S51™ system was used for screening the compounds of Examples 1-4 above. A series S sensor chip CM5 was docked onto the BIAcore S51™. Streptavidin was coupled to the carboxymethyl surface using standard amine coupling. The chip surface was activated with 0.2M EDC/0.05M NHS, followed by binding of streptavidin (0.25 mg/ml in 10 mM sodium acetate pH 5.0) and saturation of unoccupied sites with […].
The BIAcore S51 sensor chip has two separate sensor spots for immobilisation of proteins. hCD80-BT was immobilised on the streptavidin-coated surface of one sensor spot until a response of approximately 3000 RU was observed. A protein to control for non-specific binding of the compound was immobilised on a second sensor spot. The control protein used for these experiments was a biotinylated, soluble form of the human HLA protein.
Dilution series of compounds (1000 nM-0.05 nM) were prepared in running buffer (10 mM, pH 7.4, 150 mM NaCl, 0.005% P20; 5% DMSO).
BIAcore S51™ was run at a flow rate of 30 μl/min using running buffer. Compounds and DMSO standard solutions for correction of data for solvent effects were injected. Data were recorded automatically and were analysed using BIAcore S51 Evaluation software.

The subject of experiment [2] is production of Interleukin-2 (IL-2) by Human Jurkat T Cells. The experiment is described as follows: Inhibition of production of interleukin-2 (IL-2) by human Jurkat T cells (Raji/Jurkat co-culture, anti-CD3, IL-2 ELISA). The conditions noted are these: at 30 μM, read-out: inhibition of IL-2 production. The class given is cell-based. Here is the method: • Collins A V et al. (2002) Immunity 17, 201-210 “The interaction properties of costimulatory molecules revisited” Inhibition of Production of Interleukin-2 (IL-2) by Human Jurkat T Cells. Method
Human Raji cells were dispensed at a concentration of 2×10^5 cells per well in RPMI-1640 medium supplemented with 10% fetal calf serum, 1% penicillin/streptomycin, 1% glutamine (RPMI medium) in a 96-well round bottom microtitre plate. Compounds under investigation (dissolved in 100% DMSO) were diluted to eight-fold the desired final concentration in RPMI medium and added to the required final concentration for a total volume of 200 μl per well. After 20 minutes incubation at 37° C., Jurkat T cells were added at a concentration of 2×10^5 cells per well. Monoclonal antibody to CD3 (UCHT1, R&D Systems) was added to the cultures at a final concentration of 1 μg per ml, and where indicated, monoclonal antibody to CD28 (CD28.2, BD-Pharmingen) was also added at a concentration of 2.5 μg per ml. Cells were cultured at 37° C. for 5 hours, after which the plates were centrifuged and the supernatants harvested for IL-2 ELISA assay using the IL-2 Eli-pair kit (DIACLONE Research, Besancon, France) according to the manufacturers instructions.

Experiment [3] addresses T2, Biotinylated human CD80 (hCD80-BT). The conditions noted are these: CD80/CD28 interaction, cited from earlier work.

Read-outs that look alike come from different tables or passages of the source. Bounds are passed on as bounds.

On to `CN(C)CCCNC(=O)c1ccc(-n2[nH]c3c(nnc4ccccc43)c2=O)cc1` [Example 2, N-[(dimethylamino)propyl]-4-(3-oxo-1,3-dihydro-2H-pyrazolo[4,3-c]cinnolin-2-yl)benzamide], for which, at CD80-CD28 interaction, the EC50 was less than 1 µM. In experiment [1], the Kd is less than 0.1 µM and the “off-rate on CD80” value is 2×10^−2. In addition, in experiment [2], the inhibition at 30 µM came out at 65%.
As to `O=C(NCc1ccccc1)c1ccc(-n2[nH]c3c(nnc4ccccc43)c2=O)cc1` [Example 3, N-benzyl-4-(3-oxo-1,3-dihydro-2H-pyrazolo[4,3-c]cinnolin-2-yl)benzamide], the EC50 on CD80-CD28 interaction is less than 1 µM. Also, in experiment [1], the Kd was less than 0.1 µM and the “off-rate on CD80” value is on record as 2×10^−2.
Take `O=C(NCCCNC1CCCCC1)c1ccc(-n2[nH]c3c(nnc4ccccc43)c2=O)cc1` [Example 4, N-[(cyclohexylamino)propyl]-4-(3-oxo-1,3-dihydro-2H-pyrazolo[4,3-c]cinnolin-2-yl)benzamide]: the EC50 at CD80-CD28 interaction was less than 1 µM. For the same compound, in experiment [1], the Kd was less than 0.1 µM and the “off-rate on CD80” value is listed as 2×10^−2.
Take `O=C(NCCCCN1CCCC1)c1ccc(-n2[nH]c3c(nnc4c(F)cccc43)c2=O)cc1` [Example 6, 4-(6-fluoro-3-oxo-1,3-dihydro-2H-pyrazolo[4,3-c]cinnolin-2-yl)-N-(pyrrolidin-1-yl-butyl)benzamide]: the EC50 at CD80-CD28 interaction was less than 1 µM. Also, in experiment [1], the Kd is less than 0.1 µM and the “off-rate on CD80” value was 2×10^−2.
`CN1C(C)(C)CC(NC(=O)c2ccc(-n3[nH]c4c(nnc5c(F)cccc54)c3=O)cc2)CC1(C)C` [Example 7, 4-(6-fluoro-3-oxo-1,3-dihydro-2H-pyrazolo[4,3-c]cinnolin-2-yl)-n-(1,2,2,6,6-pentamethylpiperidine-4-yl)benzamide]: the EC50 at CD80-CD28 interaction was less than 1 µM. Besides, in experiment [1], the Kd is less than 0.1 µM and the “off-rate on CD80” value was 2×10^−2.
In the case of “CD28: "the endogenous protein ligand (CD28)" of CD80; "CD28 on T-cells"”, in experiment [3], the “off-rate of CD80 interaction with endogenous protein ligand” value was “greater than 0.2 s^−1”. In experiment [3] (read-out: KD of CD80 interaction with endogenous protein ligand), the Kd was 4.75 µM.
